This is an account of results in BindingDB's records for doi:10.3109/14756360903468171 (2010).

The target in this experiment is T1, Peroxisome proliferator-activated receptor gamma (Homo sapiens, UniProt P37231).
T1 sequence (P37231 whole entry): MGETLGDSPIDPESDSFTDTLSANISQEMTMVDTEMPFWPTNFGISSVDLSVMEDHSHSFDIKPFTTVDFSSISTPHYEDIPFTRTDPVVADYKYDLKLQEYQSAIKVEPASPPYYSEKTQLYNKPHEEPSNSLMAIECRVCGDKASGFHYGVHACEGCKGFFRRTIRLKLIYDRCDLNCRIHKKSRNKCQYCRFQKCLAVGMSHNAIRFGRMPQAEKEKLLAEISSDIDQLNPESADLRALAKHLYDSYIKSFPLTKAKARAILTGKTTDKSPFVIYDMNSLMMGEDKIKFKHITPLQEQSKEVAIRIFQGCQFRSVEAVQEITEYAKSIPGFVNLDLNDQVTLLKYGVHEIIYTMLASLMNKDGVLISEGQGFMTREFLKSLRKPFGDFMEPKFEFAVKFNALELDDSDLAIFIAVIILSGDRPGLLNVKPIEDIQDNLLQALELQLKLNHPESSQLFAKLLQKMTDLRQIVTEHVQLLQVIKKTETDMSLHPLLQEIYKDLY
The experiment is described as follows: Pharmacological In Vitro Assay. Particulars: pH 8.2; 4 °C. On the procedure: Binding assays were performed in 96-well plate format, using a classical filtration assay with a human full length PPARγ construct (GST-PPAR LBD (25 μg/mL)) expressed in bacteria with some modifications regarding the conditionsof the experiments. The membrane-associated PPARγ was used as the biological source as previously described. Binding buffer consisted of 10 mM Tris/HCl, pH 8.2, containing 50 mM KCl and 1 mM dithiothreitol. Membrane preparations (5 μg/mL) were incubated for 180 min at 4°C in the presence of [3H]rosiglitazone (BRL49653, Amersham) (4 nM) and the tested compounds. Nonspecific binding was defined using an excess of unlabeled rosiglitazone (10 μM). Incubation was terminated by the addition of ice-cold 50 mM Tris/HCl buffer pH 7.4, followed by rapid filtrationunder reduced pressure through Whatman GF/C filter plates presoaked with ice-cold buffer, followed by three successive washes with the same buffer. Radioactivity was measured in a TopCount apparatus (Packard).

Regarding `CCCCCCCCOc1nc2ccccc2cc1C(O)CC#CCCCC(=O)OC` (centres undefined) [8-Hydroxy-8-(2-octyloxy-quinolin-3-yl)-oct-5-ynoic acid methyl ester (8c)], the Ki is greater than 10 µM.

The compound `CCCCCOc1nc2c(ccc3ccccc32)cc1C(O)CC#CCCCC(=O)OC` (centres undefined) [8-Hydroxy-8-(2-pentyloxy-benzo[h]quinolin-3-yl)-oct-5-ynoic acid methyl ester (26b)] showed a Ki greater than 10 µM.

As for `CCCCCOc1nc2ccccc2cc1C(O)CC#CCCCC(=O)NCCO` (centres undefined) [8-Hydroxy-8-(2-pentyloxy-quinolin-3-yl)-oct-5-ynoic acid (2-hydroxy-ethyl)-amide (14a)], the Ki is greater than 10 µM.

In turn, `CCCCCOc1nc2ccccc2cc1C(O)CC#CCCCC(=O)OC` (centres undefined) [8-Hydroxy-8-(2-pentyloxy-quinolin-3-yl)-oct-5-ynoic acid methyl ester] showed a Ki greater than 10 µM.

For the compound `COCCCOc1nc2ccccc2cc1C(O)CC#CCCCC(=O)OC` (centres undefined) [8-Hydroxy-8-[2-(3-methoxy-propoxy)-quinolin-3-yl]-oct-5-ynoic acid methyl ester (8d)], the Ki was greater than 10 µM.

In turn, `COC(=O)CCCC#CCC(O)c1cc2ccccc2nc1OCCCC(F)(F)F` (centres undefined) [8-Hydroxy-8-[2-(4,4,4-trifluoro-butoxy)-quinolin-3-yl]-oct-5-ynoic acid methyl ester (8e)] registered a Ki greater than 10 µM.

With `COc1nc2ccccc2cc1C(O)CC#CCCCC(=O)O` (centres undefined) [Sodium 8-hydroxy-8-(2-methoxy-quinolin-3-yl)-oct-5-ynoate (9b)], the Ki is greater than 10 µM.

In turn, `CCCCCCCCOc1nc2ccccc2cc1C(O)CC#CCCCC(=O)O` (centres undefined) [Sodium 8-hydroxy-8-(2-octyloxy-quinolin-3-yl)-oct-5-ynoate (9c)] registered a Ki of 0.378 µM.

For the compound `CCCCCOc1nc2c(ccc3ccccc32)cc1C(O)CC#CCCCC(=O)O` (centres undefined) [Sodium 8-hydroxy-8-(2-pentyloxy-benzo[h]quinolin-3-yl)-oct-5-ynoate (27b)], the Ki is greater than 10 µM.

The compound `CCCCCOc1nc2ccc(OC)cc2cc1C(O)CC#CCCCC(=O)O` (centres undefined) [Sodium 8-hydroxy-8-(6-methoxy-2-pentyloxy-quinolin-3-yl)-oct-5-ynoate (27a)] yielded a Ki of 0.583 µM.

Consider `COCCCOc1nc2ccccc2cc1C(O)CC#CCCCC(=O)O` (centres undefined) [Sodium 8-hydroxy-8-[2-(3-methoxy-propoxy)-quinolin-3-yl]-oct-5-ynoate (9d)], for which the inhibitory constant (Ki) was greater than 10 µM.

Consider `O=C(O)CCCC#CCC(O)c1cc2ccccc2nc1OCCCC(F)(F)F` (centres undefined) [Sodium 8-hydroxy-8-[2-(4,4,4-trifluoro-butoxy)-quinolin-3-yl]-oct-5-ynoate (9e)], for which the Ki was greater than 10 µM.

Take `COc1nc2ccccc2cc1C(O)CC#CCOCC(=O)O` (centres undefined) [Sodium [5-hydroxy-5-(2-methoxy-quinolin-3-yl)-pent-2-ynyloxy]-acetate (18b)]: the inhibition constant (Ki) worked out at 3.81 µM.

`CCCCCOc1nc2ccccc2cc1C(O)CC#CCOCC(=O)O` (centres undefined) [Sodium [5-hydroxy-5-(2-pentyloxy-quinolin-3-yl)-pent-2-ynyloxy]-acetate (18a)] gave a Ki of 1.93 µM.
